This passage reports IC50 results from patent US11731985B2, “Compositions and methods for treating cancer” (Hb Therapeutics Inc., priority 2018, dated 2023).

One test deals with LN229 cells. In words: Cell viability assay, LN229 cells. It counts as cell-based, human. Conditions: Homo sapiens, LN-229, LN229 cells, read-out: Inhibition of Cancer Cell Growth (IC50). The protocol: Each of the compounds was used to treat the cancer LN229 cells and examined first by western and dot blot assays for the degradation of SUMO1 protein and then by cell viability assay for the IC50 values of anticancer activity.
LN229 cell were treated with a series of dilutions of CPD1 and examined by cell viability assay for cell growth inhibition (FIG. 2B). […] Therefore, CPD1 acts as the degrader of SUMO1 protein and inhibitor of SUMO1 conjugation in cancer cells.
Regarding `O=C(Nc1ccc(Cl)c(Cl)c1)Nc1nc2ccc([N+](=O)[O-])cc2s1` [Compound 2], the half-inhibitory concentration (IC50) – broadly, the concentration at which inhibition is half-maximal – was ≤ 5 µM.

On to `O=C(Nc1cccc([N+](=O)[O-])c1)Nc1nc2ccc(Cl)cc2s1` [Compound 4], for which the IC50 is ≤ 5 µM. In the case of `O=C(Nc1ccc([N+](=O)[O-])cc1)Nc1nc2ccc(Cl)cc2s1` [Compound 6], the IC50 was ≤ 5 µM.

Regarding `O=C(Nc1ccc(Cl)cc1)Nc1nc2ccccc2s1` [Compound 7], the 50% inhibitory concentration (IC50) was > 20 µM. Same read-out and setting: for `O=C(Nc1nc2ccccc2s1)Nc1ccccc1Cl` [Compound 8] the value was > 20 µM; for `O=C(Nc1nc2ccccc2s1)Nc1ccc([N+](=O)[O-])cc1Cl` [Compound 9], > 20 µM. In the case of `O=C(Nc1cccc([N+](=O)[O-])c1)Nc1nc2ccc(F)cc2s1` [Compound 10], the IC50 was ≤ 5 µM. The same measure, in the same setting: for `O=C(Nc1ccccc1)Nc1nc2ccccc2s1` [Compound 11] the value was > 20 µM; for `O=C(Nc1cccc([N+](=O)[O-])c1)Nc1nc2c(Cl)cccc2s1` [Compound 12], ≤ 20 µM. Same read-out and setting: the result for `N#Cc1ccc(NC(=O)Nc2nc3ccc(C(F)(F)F)cc3s2)cc1C#N` [Compound 13] reads > 20 µM; that for `O=C(Nc1nc2ccc([N+](=O)[O-])cc2s1)Nc1c(Cl)cccc1Cl` [Compound 14], ≤ 20 µM; that for `O=C(Nc1ccc(Cl)cc1)Nc1nc2cccc([N+](=O)[O-])c2s1` [Compound 15], > 20 µM. Same read-out and setting: the result for `O=C(Nc1nc2cccc([N+](=O)[O-])c2s1)Nc1ccc(Cl)cc1F` [Compound 16] reads > 20 µM; that for `O=C(Nc1ccc(F)c([N+](=O)[O-])c1)Nc1nc2c(Cl)cccc2s1` [Compound 17], > 20 µM. `CS(=O)(=O)c1ccc2nc(NC(=O)Nc3cccc(Cl)c3)sc2c1` [Compound 20]: the IC50 was > 20 µM. Regarding `O=C(Nc1cccc(Cl)c1)Nc1nc2ccc(Br)cc2s1` [Compound 21], the IC50 is > 20 µM. Still for that read-out and setting: the result for `Cc1nc2ccc(NC(=O)Nc3cccc([N+](=O)[O-])c3)cc2s1` [Compound 22] reads ≤ 20 µM; that for `N#Cc1ccc2nc(NC(=O)Nc3cccc([N+](=O)[O-])c3)sc2c1` [Compound 23], ≤ 5 µM; that for `O=C(Nc1nc2ccc([N+](=O)[O-])cc2s1)c1ccc(F)cc1` [Compound 25], > 20 µM. Regarding `O=C(Cc1ccc(Cl)cc1)Nc1nc2ccc([N+](=O)[O-])cc2s1` [Compound 26, 2-(4-chlorophenyl)-N-(6-nitro-1,3-benzothiazol-2-yl)acetamide], the IC50 was ≤ 20 µM.

As for `O=C(Nc1cccc(C(=O)O)c1)Nc1nc2ccc([N+](=O)[O-])cc2s1` [Compound 27], the IC50 is > 20 µM. Same read-out and setting: the result for `COC(=O)c1ccc2nc(NC(=O)Nc3cccc([N+](=O)[O-])c3)sc2c1` [Compound 28] reads ≤ 20 µM; that for `O=C1N(c2cccc(Cl)c2)CCCN1c1nc2ccc([N+](=O)[O-])cc2s1` [Compound 29], > 20 µM. Take `N#Cc1ccc2nc(NC(=O)Nc3cccc(Br)c3)sc2c1` [Compound 31, 1-(3-bromophenyl)-3-(6-cyano-1,3-benzothiazol-2-yl)urea]: the half-maximal inhibitory concentration (IC50) was ≤ 5 µM. Turning to `N#Cc1ccc2nc(NC(=O)Nc3cccc(-c4ccc(F)cc4)c3)sc2c1` [Compound 32, 1-(6-cyano-1,3-benzothiazol-2-yl)-3-[3-(4-fluorophenyl)phenyl]urea], the IC50 is ≤ 5 µM.

Consider `COc1ccc(-c2cccc(NC(=O)Nc3nc4ccc(C#N)cc4s3)c2)cc1` [Compound 33], for which the IC50 was ≤ 5 µM.

`Cc1ccc(-c2cccc(NC(=O)Nc3nc4ccc(C#N)cc4s3)c2)cc1` [Compound 34]: the IC50 is ≤ 5 µM. On the same count and under the same terms, for `Cc1ccc(NC(=O)Nc2nc3ccc(C#N)cc3s2)nc1` [Compound 35] the value was > 20 µM; for `N#Cc1ccc2nc(NC(=O)Nc3ccc(Br)cc3)sc2c1` [Compound 36], ≤ 5 µM. On the same count and under the same terms, the result for `N#Cc1ccc2nc(NC(=O)Nc3cc(Cl)cc(Cl)c3)sc2c1` [Compound 37] reads ≤ 5 µM; that for `COc1cccc(NC(=O)Nc2nc3ccc(C#N)cc3s2)c1` [Compound 38], ≤ 5 µM; that for `CC(C)(C)c1ccc(NC(=O)Nc2nc3ccc(C#N)cc3s2)cc1` [Compound 40], > 20 µM. Still for that read-out and setting: for `N#Cc1ccc2nc(NC(=O)Nc3ccc(Cl)c(Cl)c3)sc2c1` [Compound 41] the value was ≤ 5 µM; for `N#Cc1cccc(NC(=O)Nc2nc3ccc(Cl)cc3s2)c1` [Compound 42], ≤ 5 µM. Regarding `COc1ccc2nc(NC(=O)Nc3cccc(C#N)c3)sc2c1` [Compound 43], the IC50 is ≤ 20 µM.

For the compound `Cc1ccc2nc(NC(=O)Nc3cccc(C#N)c3)sc2c1` [Compound 44], the IC50 was > 20 µM. Regarding `N#Cc1ccc2nc(NC(=O)Nc3ccccc3)sc2c1` [Compound 45], the IC50 is ≤ 5 µM. Still for that read-out and setting: for `N#Cc1cccc(NC(=O)NC2Cc3ccccc3C2)c1` [Compound 46] the value was > 20 µM; for `N#Cc1cccc(NC(=O)N2CCc3ccccc3C2)c1` [Compound 47], > 20 µM; for `N#Cc1cccc(NC(=O)Nc2nc3ccccc3s2)c1` [Compound 48], ≤ 20 µM.

`CC(C)(C)OC(=O)N1CCc2nc(NC(=O)Nc3cccc(C#N)c3)sc2C1` [Compound 49]: the IC50 is ≤ 20 µM. Same read-out and setting: for `N#Cc1cccc(NC(=O)Nc2nc3c(s2)CNCC3)c1` [Compound 50] the value was ≤ 20 µM. The same measure, in the same setting: for `N#Cc1ccc2nc(NC(=O)Nc3ccccc3C(F)(F)F)sc2c1` [Compound 51] the value was ≤ 20 µM. The same measure, in the same setting: for `CN1CCc2nc(NC(=O)Nc3cccc(C#N)c3)sc2C1` [Compound 52] the value was > 20 µM.

For `CCOC(=O)c1ccc2nc(NC(=O)Nc3cccc(C#N)c3)sc2c1` [Compound 53], the IC50 was ≤ 5 µM. Regarding `CC(C(=O)Nc1nc2ccc(C#N)cc2s1)c1ccccc1` (stereo not shown) [Compound 54], the IC50 was > 20 µM. For the compound `Cc1ccc(C(C)C(=O)Nc2nc3ccc(C#N)cc3s2)cc1` (stereo not shown) [Compound 55], the concentration for half-maximal inhibition (IC50) is ≤ 20 µM. On to `CC(C)(C(=O)Nc1nc2ccc(C#N)cc2s1)c1ccccc1` [Compound 56], for which the IC50 was > 20 µM. Same read-out and setting: for `N#Cc1ccc2nc(NC(=O)C3(c4ccccc4)CC3)sc2c1` [Compound 57] the value was > 20 µM; for `N#Cc1cccc(NC(=O)Nc2nc3c(s2)COCC3)c1` [Compound 58], ≤ 20 µM; for `N#Cc1cccc(NC(=O)Nc2nc3c(s2)CCCC3)c1` [Compound 59], ≤ 20 µM. The same measure, in the same setting: for `N#Cc1cccc(NC(=O)Nc2nc3ccc(C(=O)N4CCOCC4)cc3s2)c1` [Compound 60] the value was > 20 µM; for `CC(C)(C)OC(=O)NC1CCc2nc(NC(=O)Nc3cccc(C#N)c3)sc2C1` (stereo not shown) [Compound 61], ≤ 5 µM.

`CC(C)(C)OC(=O)N[C@@H]1CCc2nc(NC(=O)Nc3cccc(C#N)c3)sc2C1` [Compound 62]: the IC50 is ≤ 5 µM. On the same count and under the same terms, the result for `CC(C)(C)OC(=O)N[C@H]1CCc2nc(NC(=O)Nc3cccc(C#N)c3)sc2C1` [Compound 63] reads ≤ 20 µM; that for `CN(C)C(=O)c1ccc2nc(NC(=O)Nc3cccc(C#N)c3)sc2c1` [Compound 64], > 20 µM. On the same count and under the same terms, for `CC(=O)N1CCc2nc(NC(=O)Nc3cccc(C#N)c3)sc2C1` [Compound 65] the value was > 20 µM; for `N#Cc1cccc(NC(=O)Nc2nc3ccc(C#N)cc3s2)c1` [Compound 66], ≤ 5 µM.

Take `N#Cc1cccc(NC(=O)Nc2nc3c(s2)CC(N)CC3)c1` (stereo not shown) [Compound 67]: the IC50 was ≤ 20 µM.

Regarding `COc1cccc(NC(=O)Nc2nc3ccc(C#N)cc3s2)n1` [Compound 68], the IC50 is > 20 µM. Still for that read-out and setting: for `CN(C)C1CCc2nc(NC(=O)Nc3cccc(C#N)c3)sc2C1` (stereo not shown) [Compound 69] the value was ≤ 20 µM. On the same count and under the same terms, for `N#Cc1cccc(NC(=O)Nc2nc3ccc(F)cc3s2)c1` [Compound 70] the value was ≤ 5 µM. Still for that read-out and setting: the result for `COc1cc(NC(=O)Nc2nc3ccc(C#N)cc3s2)ccn1` [Compound 71] reads ≤ 5 µM; that for `N#Cc1cccc(NC(=O)Nc2nc3ccc([N+](=O)[O-])cc3s2)c1` [Compound 72], ≤ 5 µM. On to `N#Cc1ccc2nc(NC(=O)NCc3ccccc3)sc2c1` [Compound 73], for which the IC50 was ≤ 20 µM. Still for that read-out and setting: the result for `N#Cc1cccc(NC(=O)Nc2nc3ccc(Br)cc3s2)c1` [Compound 74] reads ≤ 5 µM. Still for that read-out and setting: the result for `CC(=O)Nc1ccc2nc(NC(=O)Nc3cccc(C#N)c3)sc2c1` [Compound 75] reads > 20 µM; that for `CN(C(=O)Nc1nc2ccc(C#N)cc2s1)c1ccccc1` [Compound 76], > 20 µM. The same measure, in the same setting: for `N#Cc1cccc(NC(=O)Nc2nc3ccc(N)cc3s2)c1` [Compound 77] the value was > 20 µM; for `CCOC(=O)C1CCc2nc(NC(=O)Nc3cccc(C#N)c3)sc2C1` (stereo not shown) [Compound 79], > 20 µM; for `CCOC(=O)C1CCc2nc(NC(=O)Nc3cccc(Cl)c3)sc2C1` (stereo not shown) [Compound 80], > 20 µM. Regarding `COc1cncc(NC(=O)Nc2nc3ccc(C#N)cc3s2)c1` [Compound 81], the IC50 was > 20 µM. Same read-out and setting: the result for `N#Cc1ccc2nc(NC(=O)Nc3cccc(N4CCOCC4)c3)sc2c1` [Compound 82] reads ≤ 20 µM; that for `CN1CCN(c2cccc(NC(=O)Nc3nc4ccc(C#N)cc4s3)c2)CC1` [Compound 83], ≤ 5 µM.

The same test, now with this note: LN229 cells, read-out: Inhibition of Cancer Cell Growth (IC50).
Take `O=C(Nc1cccc(Cl)c1)Nc1nc2ccc([N+](=O)[O-])cc2s1` [Compound 3]: the IC50 was ≤ 5 µM. For the compound `O=C(Nc1ccc(Cl)cc1)Nc1nc2ccc([N+](=O)[O-])cc2s1` [Compound 5], the IC50 was ≤ 5 µM.

Take `O=C(Nc1ccc(Cl)cc1)Nc1nc2ccc([N+](=O)[O-])cc2s1` [Compound 18]: the 50% inhibitory concentration (IC50) is > 20 µM.

`O=C(Nc1cccc(Cl)c1)Nc1nc2ccc([N+](=O)[O-])cc2s1` [Compound 19]: the IC50 was > 20 µM. Still for that read-out and setting: the result for `CCc1ccc(NC(=O)Nc2nc3ccc(C#N)cc3s2)cc1` [Compound 39] reads ≤ 5 µM.
